Where “and” joins values, the source holds several entries; their conditions need not be identical. Equal entries are not always repeated. Where two headings read alike, the source gives them in different places.
Assays:
Mysidopsis bahia = experiment: 96-hour bioassay of ClO2 treated side stream effluent, Independent Bioassay Laboratory A, mysid shrimp; assay type: in vivo; conditions: end of 96-hour test period; ClO2 treated side stream effluent grabs Sep. 3, 2001 12:00, 18:00, 24:00, Sep. 4, 2001 06:00
Excerpt: (§1) Mysidopsis bahia (Mysids) and Menidia beryllina (Silversides) were subjected to ClO2 treated effluent in these tests. Adequate volumes of chemical were brought to the site to conduct a dosing of the side stream for a 24-hour period. During this period, 2 gallons of treated water were taken at 6-hour intervals, preserved on ice and shipped to an independent bioassay laboratory (designated Independent Bioassay Laboratory A).
(§2) Table 3(c) illustrates the survivability of the organisms at the 96-hour end-point in the test for each of the 4 samples taken (samples indicated by date and time each sample was taken.).

Menidia beryllina = experiment: 96-hour bioassay of ClO2 treated side stream effluent, Independent Bioassay Laboratory A, silverside minnow; assay type: in vivo; conditions: end of 96-hour test period; ClO2 treated side stream effluent grabs Sep. 3, 2001 12:00, 18:00, 24:00, Sep. 4, 2001 06:00
Excerpt: as §1, §2

M. beryllina = experiment: Bioassay of ClO2 treated WWTP 2 effluent by Laboratory 4, silverside minnow; assay type: in vivo, Menidia beryllina; conditions: for Sample survival % of M. berylina: grabs Sep. 11, 2002 10:00, 15:30, 22:00, Sep. 12, 2002 10:00
Excerpt: With the success of the above bioassay series that began on Aug. 20, 2002, it was concluded that a third party test was needed to verify research data. Water grabs from the Anastasia Island Treatment Facility, taken on Aug. 28, 2002, were delivered to Laboratory 4, an independent bioassay laboratory. Additional testing of the water sent to Laboratory 4 labs was also forwarded to another contract lab to document the water quality during the sample periods for the bioassays. It should be noted here that the plant was operating under their normal operating conditions and accepting both landfill leachate as well as septic tank and portable toilet waste. These were however pumped into a storage tank and then trickled into the influent stream at the headworks.
The complete toxicological study as reference is included as attachment at the end of this study.
With the successful bioassay conducted by the Laboratory 4 labs, a second series of water samples was taken for the repeat bioassay. These samples were taken on Sep. 11, 2002 and forwarded to Laboratory 4 labs on Sep. 12, 2002 to conduct the bioassay. The results of this test for both the water quality toxicity and the bioassay are illustrated in the Tables 13, 14 and 15.
The complete toxicological results are provided at the end of this study as attachments.

Staphylococcus aureus = conditions: 1 ppm of ClO2; contact time 60 s; cited from earlier work
Eschericia Coli = conditions: cited from earlier work
Streptococcus = conditions: 1 ppm of ClO2; contact time 15 s; cited from earlier work
Lactobacillus Brevis = conditions: contact time 300 s, cited from earlier work
Pseudomonas aeruginosa = conditions: 1 ppm of ClO2; contact time 60 s; cited from earlier work
[1] = tested on: Saccharomyces diastaticus (yeast); conditions: cited from earlier work
[2] = tested on: Penicillum expansum (mould); conditions: cited from earlier work
Pediococcus Damnosus = conditions: cited from earlier work
[3] = tested on: Pectinatus cervisiiphilus; conditions: 0.1 ppm of ClO2; contact time 5 min; cited from earlier work
Fecal Coliform [4] = experiment: Fecal coliform counts in effluent, full-scale pilot and baseline at WWTP 2
Fecal Coliform [5] = experiment: Fecal coliform kill in ClO2-dosed post clarifier effluent, side stream pilot at WWTP 1 (Membrane Filter SM 9222D)

Chlorine dioxide [ClO2]
Percent Survival Mysid bahia (Mysidopsis bahia): 0% | Percent Survival m. beryllina (Menidia beryllina): 95% and 100% | Sample survival % of M. berylina (M. beryllina; 6.25 % Effluent): 100% | Sample survival % of M. berylina (M. beryllina; 12.5 % Effluent): 100% | Sample survival % of M. berylina (M. beryllina; 25 % Effluent): 100% and 95% | Sample survival % of M. berylina (M. beryllina; 50 % Effluent): 95% and 100% | Sample survival % of M. berylina (M. beryllina; 100 % Effluent): 95% and 100% | M. beryllina % survival (M. beryllina; ClO2 treated effluent grabs Aug. 28, 2002 10:15, 16:00, 22:00, Aug. 29, 2002 09:30): 100% | Inactivation in % (Staphylococcus aureus): 99.999% | Inactivation in % (Eschericia Coli; 0.15 ppm of ClO2, contact time 300 s): 99.9% | Inactivation in % (Eschericia Coli; 0.25 ppm of ClO2, contact time 60 s): >99.999% | Inactivation in % (Streptococcus): >99.999% | Inactivation in % (Lactobacillus Brevis; 0.15 ppm of ClO2): 99.9% | Inactivation in % (Lactobacillus Brevis; 1 ppm of ClO2): >99.999% | Inactivation in % (Pseudomonas aeruginosa): >99.999% | Inactivation in % ([1]; 0.15 ppm of ClO2, contact time 10 min): 99.9% | Inactivation in % ([1]; 0.5 ppm of ClO2, contact time 10 min): >99.999% | Inactivation in % ([1]; 1 ppm of ClO2, contact time 1 min): >99.999% | Inactivation in % ([2]; 0.5 ppm of ClO2, contact time 60 min): 99.99% | Inactivation in % ([2]; 2 ppm of ClO2, contact time 20 min): 99.999% | Inactivation in % (Pediococcus Damnosus; 0.15 ppm of ClO2, contact time 20 min): 99.99% | Inactivation in % (Pediococcus Damnosus; 0.3 ppm of ClO2, contact time 5 min): 99.99% | Inactivation in % (Pediococcus Damnosus; 1 ppm of ClO2, contact time 5 min): 99.999% | Inactivation in % [3]: 99.9% | FECAL (Fecal Coliform [4]; 13:00, 1.2 PPM DOSE RATE, sample point 1, 19 Aug. 2002): 6 | FC (fecal) (Fecal Coliform [4]; 15:00, 0.91 PPM DOSE, sample point 4, 19 Aug. 2002): 15 | FECAL (Fecal Coliform [4]; 15:45, 1.05 PPM DOSE RATE, sample point 4, 19 Aug. 2002): 26 | FECAL (Fecal Coliform [4]; WWTP 2 effluent 28-Aug, CL2SO2 at 8:30, CLO2 at 10:15): 45 | Fecal Coliform (Fecal Coliform [5]; 1.8 ppm, 5 min contact, pH 7.20, Feb. 6, 2001): <1 #cfu/100 mls | Fecal Coliform (Fecal Coliform [5]; 1.8 ppm, 5 min contact, pH 7.20, Feb. 7, 2001): <1 #cfu/100 mls | Fecal Coliform (Fecal Coliform [5]; 2.23 ppm, 5 min contact, pH 7.20, Feb. 6, 2001): <1 #cfu/100 mls | Fecal Coliform (Fecal Coliform [5]; 2.23 ppm, 5 min contact, pH 7.20, Feb. 7, 2001): <1 #cfu/100 mls | Fecal Coliform (Fecal Coliform [5]; 3.0 ppm, 5 min contact, pH 7.20, Feb. 6, 2001): <1 #cfu/100 mls | Fecal Coliform (Fecal Coliform [5]; 3.0 ppm, 5 min contact, pH 7.20, Feb. 7, 2001): <1 #cfu/100 mls | Fecal Coliform (Fecal Coliform [5]; 3.97 ppm, 5 min contact, pH 7.20, Feb. 6, 2001): <1 #cfu/100 mls | Fecal Coliform (Fecal Coliform [5]; 3.97 ppm, 5 min contact, pH 7.20, Feb. 7, 2001): <1 #cfu/100 mls | Fecal Coliform (Fecal Coliform [5]; 5% chlorite solution, ClO2 dose rate 3.0 mg/ltr, 5 minute contact, Jan. 24, 2001): <1 #cfu/100 mls | Fecal Coliform (Fecal Coliform [5]; 5.0 ppm, 5 min contact, pH 7.20, Feb. 6, 2001): <1 #cfu/100 mls | Fecal Coliform (Fecal Coliform [5]; 5.0 ppm, 5 min contact, pH 7.20, Feb. 7, 2001): <1 #cfu/100 mls | Fecal Coliform (Fecal Coliform [5]; Injector 1.8 ppm, 5 min contact, pH 7.30, Feb. 5, 2001): <1 #cfu/100 mls | Fecal Coliform (Fecal Coliform [5]; Injector 2.23 ppm, 5 min contact, pH 7.30, Feb. 5, 2001): <1 #cfu/100 mls | Fecal Coliform (Fecal Coliform [5]; Injector 3.0 ppm, 5 min contact, pH 7.30, Feb. 5, 2001): <1 #cfu/100 mls | Fecal Coliform (Fecal Coliform [5]; Injector 3.97 ppm, 5 min contact, pH 7.30, Feb. 5, 2001): <1 #cfu/100 mls | Fecal Coliform (Fecal Coliform [5]; Injector 5.0 ppm, 5 min contact, pH 7.30, Feb. 5, 2001, (*) bits of algae in samples): 1 (*) #cfu/100 mls and <1 #cfu/100 mls | dosing rate at which fecal coliform kills were also achieved (as low as) (Fecal Coliform [5]; further testing): 0.075 ppm | fecal coliform kill (Fecal Coliform [5]; lower dosing rate of 1.8 ppm): effectively killed | time required for a complete fecal kill (Fecal Coliform [5]; lower dosing rates): more than 2 minutes

— patent US20050244328A1 (priority 2002, published 2005)
